Source: ChEMBL document CHEMBL4011586 (Eur J Med Chem, 2017)
Activity calls are given as the source filed them. The calls are words filed in the database; no cut-off is given here.

Legend:
[1] = biological target: T1, Amine oxidase [flavin-containing] B (Homo sapiens, UniProt P27338); experiment: Inhibition of recombinant human MAO-B expressed in baculovirus infected BTI insect cells assessed as reduction in H2O2 production using p-tyramine as substrate pretreated for 30 mins followed by substrate addition after 30 mins by Amplex red reagent based assay
T1 sequence (P27338 whole entry): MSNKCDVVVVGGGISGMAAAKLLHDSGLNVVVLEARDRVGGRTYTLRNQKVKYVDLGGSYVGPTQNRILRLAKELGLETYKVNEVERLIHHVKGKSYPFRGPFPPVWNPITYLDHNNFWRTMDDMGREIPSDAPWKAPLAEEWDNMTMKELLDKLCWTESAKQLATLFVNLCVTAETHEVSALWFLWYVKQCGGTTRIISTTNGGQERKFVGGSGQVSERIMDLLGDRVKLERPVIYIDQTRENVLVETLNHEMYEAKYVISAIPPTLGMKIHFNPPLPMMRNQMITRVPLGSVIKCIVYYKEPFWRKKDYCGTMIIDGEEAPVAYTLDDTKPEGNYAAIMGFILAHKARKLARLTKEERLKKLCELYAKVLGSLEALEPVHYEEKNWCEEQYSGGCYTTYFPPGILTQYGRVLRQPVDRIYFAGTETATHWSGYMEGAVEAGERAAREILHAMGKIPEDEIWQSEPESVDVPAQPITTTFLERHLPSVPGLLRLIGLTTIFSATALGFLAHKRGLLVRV

[2] = species: Homo sapiens; experiment: Selectivity index, ratio of IC50 for recombinant human MAO-A to IC50 for recombinant human MAO-B
[3] = biological target: T2, Amine oxidase [flavin-containing] A (Homo sapiens, UniProt P21397); experiment: Inhibition of recombinant human MAO-A expressed in baculovirus infected BTI insect cells assessed as reduction in H2O2 production using p-tyramine as substrate pretreated for 30 mins followed by substrate addition after 30 mins by Amplex red reagent based assay
T2 sequence (P21397 whole entry): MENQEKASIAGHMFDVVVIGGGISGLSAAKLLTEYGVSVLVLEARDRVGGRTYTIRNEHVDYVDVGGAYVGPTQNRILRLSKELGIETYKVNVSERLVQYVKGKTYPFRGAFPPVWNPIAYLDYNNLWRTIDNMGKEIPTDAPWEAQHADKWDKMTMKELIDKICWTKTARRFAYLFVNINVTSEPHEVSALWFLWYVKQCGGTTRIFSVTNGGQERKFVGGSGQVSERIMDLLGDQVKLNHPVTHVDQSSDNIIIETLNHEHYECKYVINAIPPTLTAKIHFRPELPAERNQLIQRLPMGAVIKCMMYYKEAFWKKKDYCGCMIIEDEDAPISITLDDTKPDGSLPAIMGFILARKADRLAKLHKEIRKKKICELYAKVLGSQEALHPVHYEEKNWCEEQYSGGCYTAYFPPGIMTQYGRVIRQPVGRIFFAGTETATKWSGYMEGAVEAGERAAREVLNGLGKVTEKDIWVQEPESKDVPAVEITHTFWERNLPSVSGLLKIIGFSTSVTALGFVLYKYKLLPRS

[4] = Cytotoxicity against rat PC-12 Adh cells assessed as cell viability at 50 uM after 24 hrs by WST-1 assay relative to control; format: cell-based; details: read-out: Activity
[5] = system: PC-12; experiment: Neuroprotective activity against rotenone-induced toxicity in rat PC12 cells at 50 to 100 uM pretreated followed by rotenone challenge measured after 24 hrs; format: functional, cell-based
[6] = Cytotoxicity against human SH-SY5Y cells assessed as cell viability at 50 uM after 24 hrs by WST-1 assay relative to control; format: cell-based; details: read-out: Activity
[7] = system: PC-12; experiment: Neuroprotective activity against H2O2-induced toxicity in rat PC12 cells at 50 to 100 uM pretreated followed by H2O2 challenge measured after 24 hrs; format: functional, cell-based
[8] = Cytotoxicity against rat PC12 cells assessed as cell viability at 50 uM after 24 hrs by WST-1 assay relative to control; format: cell-based, PC-12; details: read-out: Activity
[9] = biological target: T1, Amine oxidase [flavin-containing] B; experiment: Reversible inhibition of recombinant human MAO-B expressed in baculovirus infected BTI insect cells assessed as reduction in H2O2 production using p-tyramine as substrate at 3 times IC50 pretreated up to 60 mins followed by substrate addition after 30 mins by Amplex red reagent based assay; details: 0.5 h
[10] = biological target: T1, Amine oxidase [flavin-containing] B; experiment: (§1) Competitive inhibition of recombinant human MAO-B expressed in baculovirus infected BTI insect cells assessed as reduction in H2O2 production at 11 to 44 nM using varying levels of p-tyramine as substrate pretreated up to 60 mins followed by substrate addition measured after 30 mins by Line-weaver burk plot analysis; details: 0.5 h
[11] = biological target: T1, Amine oxidase [flavin-containing] B; experiment: as §1, with “4” for “11”, “16” for “44”; details: 0.5 h

| SMILES | IC50 [1] | Ratio IC50 [2] | IC50 [3] | viability at 24 h, 50 µM [4] | Activity [5] | viability at 24 h, 50 µM [6] | Activity [7] | viability at 24 h, 50 µM [8] | inhibition (INH) [9] | inhibition (INH) [10] | inhibition (INH) [11] |
| --- | --- | --- | --- | --- | --- | --- | --- | --- | --- | --- | --- |
| O=C1COC(c2ccc(/C=N/Nc3cccc(Cl)c3)cc2)=NN1 | 0.554 µM | > 18 | > 10 µM | – | – | – | – | – | – | – | – |
| O=C1COC(c2ccc(/N=C/c3cccc(Cl)c3)cc2)=NN1 | 0.257 µM | > 385 | > 100 µM | > 90% | inactive | > 90% | inactive | > 90% | Active | – | – |
| CN1N=C(c2ccc(/N=C/c3cccc(Cl)c3)cc2)OCC1=O | 2.03 µM | > 49 | > 100 µM | – | – | – | – | – | – | – | – |
| O=C1COC(c2ccc(/C=C/c3cccc(F)c3)cc2)=NN1 | 0.022 µM | > 4540 | > 100 µM | > 90% | inactive | > 90% | inactive | > 90% | Active | Active | – |
| O=C1COC(c2ccc(/N=N/c3ccccc3)cc2)=NN1 | 0.004 µM | > 25000 | > 100 µM | > 90% | inactive | > 90% | inactive | > 90% | Active | – | Active |
| O=C1COC(c2ccc(/N=N/c3cccc(F)c3)cc2)=NN1 | 0.012 µM | > 8330 | > 100 µM | – | – | – | – | – | – | – | – |
| CCN1N=C(c2ccc(/C=C/c3cccc(Cl)c3)cc2)OCC1=O | > 10 µM | – | > 100 µM | – | – | – | – | – | – | – | – |
| O=C1COC(c2ccc(NC(=O)Nc3cccc(Cl)c3)cc2)=NN1 | 2.89 µM | > 34 | > 100 µM | – | – | – | – | – | – | – | – |
| Cc1cccc(/N=N/c2ccc(C3=NNC(=O)CO3)cc2)c1 | 0.025 µM | > 4000 | > 100 µM | – | – | – | – | – | – | – | – |
| O=C1COC(c2ccc(/N=N/c3cccc(Cl)c3)cc2)=NN1 | 0.287 µM | > 348 | > 100 µM | – | – | – | – | – | – | – | – |
| O=C1COC(c2ccc(NS(=O)(=O)c3cccc(Cl)c3)cc2)=NN1 | > 10 µM | – | > 100 µM | – | – | – | – | – | – | – | – |
| O=C1COC(c2ccc(/N=C/c3ccccc3)cc2)=NN1 | > 10 µM | – | > 100 µM | – | – | – | – | – | – | – | – |
| O=C1COC(c2ccc(/C=N/c3cccc(Cl)c3)cc2)=NN1 | 0.551 µM | > 182 | > 100 µM | – | – | – | – | – | – | – | – |
| O=C1COC(c2ccc(NCc3cccc(Cl)c3)cc2)=NN1 | 2.69 µM | > 37 | > 100 µM | – | – | – | – | – | – | – | – |
| Cc1cccc(/C=N/c2ccc(C3=NNC(=O)CO3)cc2)c1 | 1.27 µM | > 78 | > 100 µM | > 90% | inactive | > 90% | inactive | > 90% | Active | – | – |
| O=C1COC(c2ccc(/N=N/c3ccc(Cl)cc3)cc2)=NN1 | 0.392 µM | > 255 | > 100 µM | – | – | – | – | – | – | – | – |
| O=C1COC(c2ccc(/N=C/c3cccc(F)c3)cc2)=NN1 | 1.53 µM | > 65 | > 100 µM | – | – | – | – | – | – | – | – |
| Cc1cccc(/C=C/c2ccc(C3=NNC(=O)CO3)cc2)c1 | 0.338 µM | > 296 | > 100 µM | – | – | – | – | – | – | – | – |
| N#CCCN1N=C(c2ccc(NC(=O)c3cccc(Cl)c3)cc2)OCC1=O | 4.23 µM | > 24 | > 100 µM | – | – | – | – | – | – | – | – |
| O=C1COC(c2ccc(NC(=O)c3cccc(Cl)c3)cc2)=NN1 | 0.284 µM | > 357 | > 100 µM | – | – | – | – | – | – | – | – |
| O=C1COC(c2ccc(/C=C/c3cccc(Cl)c3)cc2)=NN1 | 0.173 µM | > 578 | > 100 µM | – | – | – | – | – | – | – | – |
| O=C1COC(c2ccc(/N=C/c3ccc(Cl)cc3)cc2)=NN1 | 0.433 µM | > 231 | > 100 µM | – | – | – | – | – | – | – | – |
| NC(=O)CN1N=C(c2ccc(NC(=O)c3cccc(Cl)c3)cc2)OCC1=O | 3.69 µM | > 27 | > 100 µM | – | – | – | – | – | – | – | – |
| O=C1COC(c2ccc(C(=O)Nc3cccc(Cl)c3)cc2)=NN1 | 0.288 µM | > 344 | > 100 µM | – | – | – | – | – | – | – | – |
| O=C1COC(c2ccc(/C=C/c3ccccc3)cc2)=NN1 | 0.165 µM | > 606 | > 100 µM | – | – | – | – | – | – | – | – |
| O=C1COC(c2ccc(/C=C/c3ccc(Cl)cc3)cc2)=NN1 | 0.542 µM | > 185 | > 100 µM | – | – | – | – | – | – | – | – |
